# Results published in the SangsterLogP compilation.
# Conditions: pH 2.0
row,SMILES,logD
1,Cc1cc(C)n2nc(S[C@@H](C)C(=O)NCC(=O)Nc3ccc(F)c(F)c3F)nc2n1,2.18
2,O=S(=O)(/C=C/C=C/Sc1ccccc1)c1ccccc1,4.03
3,CC(=O)N1Cc2ccccc2C[C@H]1C(=O)OCc1ccc(C#N)cc1,2.41
4,O=C1[C@@H](CSCc2ccccc2)NC(=S)N1C1CCCCC1,4.58
5,O=C1[C@@H]2[C@@H]3[C@H]4C[C@H]5[C@@H]3[C@@H]2C2(OCCO2)[C@H]5[C@@H]14,0.51

# Same assay, conditions: pH 5.0
row,SMILES,logD
1,O=C(Nc1cccc(Cl)c1)c1cc2n(n1)[C@H](C(F)(F)F)C[C@@H](c1ccccc1)N2,5.92
2,C[C@@H]1CCC[C@H](C)N1C(=O)COC(=O)c1ccc2c(c1)S(=O)(=O)c1ccccc1C2=O,4.39
3,O=C1[C@@H](c2cccc(Br)c2)N(CCC2=CCCCC2)C(=O)CN1C1CCCCC1,5.6
4,O=C1c2ccccc2C(=O)N1/N=C/c1cc([N+](=O)[O-])ccc1Cl,4.03
5,CCOc1cc([C@H]2[C@@H]3CN(C(=O)OC(C)(C)C)CC=C3C(C#N)=C(N)C2(C#N)C#N)ccc1OC(C)C,5.83
6,O=C1[C@H]2[C@@H](C(=O)N1c1ccccc1)C1(O[C@H]2c2ccccc2)C(=O)c2ccccc2C1=O,4
7,COc1ccc([C@@H]2C3=C(C[C@H](c4ccco4)CC3=O)Nc3ccccc3N2C(=O)C(F)(F)F)cc1,4.62
8,Cc1ccc(C)c(NC(=O)[C@H]2CC3c4ccccc4C2c2ccccc23)c1,5.26
9,COc1cc2c(cc1OC)[C@@]1(C)N(CC2)C(=O)OC12CCCCC2,3.47
10,Cc1cccc(NC(=O)Cc2ccc(Br)cc2)c1C,4.05
11,Cc1ccc(C(=O)COc2cccc(N3C(=O)[C@@H]4[C@H]5CC[C@H](C5)[C@@H]4C3=O)c2)cc1C,4.71
12,O=C(/C=C/c1ccc2c(c1)OCO2)NCCCCNC(=O)/C=C/c1ccc2c(c1)OCO2,4.59
13,C[C@H]1CN(C(=O)c2csc3c2CCCC3)/C(=N/c2ccc(Cl)cc2)S1,5.53
14,COC(=O)c1cccc(NC(=O)c2ccc(C)cc2)c1,3.72
15,COc1ccccc1/C=N/n1c(C)cc(C)c(C#N)c1=O,3.08
16,CCc1ccccc1NC(=O)[C@]12CC[C@](C)(C(=O)O1)C2(C)C,3.31
17,O=C(Nc1ccc2c(c1)OCO2)[C@@H]1COc2ccccc2O1,3.28
18,C[C@@H](Oc1ccc(F)cc1F)C(=O)c1cn(-c2ccc(OC(F)(F)F)cc2)nn1,5.83
19,Cc1ccc(-c2nc3n(n2)C(=O)C[C@H](c2cccc([N+](=O)[O-])c2)S3)cc1,4.49
20,CN1C(=CC(=O)COC(=O)C(c2ccccc2)c2ccccc2)C(C)(C)c2ccccc21,6.27
21,CCCN(CCC)S(=O)(=O)c1ccc(C(=O)OCCN2C(=O)C3C4c5ccccc5C(c5ccccc54)C3C2=O)cc1 (stereo unspecified),4.17
22,C[C@H](C(=O)NC1CCCC1)N(c1ccc(Cl)cc1)S(C)(=O)=O,3.48

row,SMILES,logD
1,C[C@@]12CC[C@H]3C[C@]1(C#N)N(C(=O)c1cccc([N+](=O)[O-])c1)C[C@]32C,3.25
2,CC(C)C(=O)N[C@H](Oc1ccc(C=O)cc1)C(Cl)(Cl)Cl,3.68
3,C[C@@H]1C=CC[C@@H]2C(=O)N(c3cccc(C(=O)OCC(=O)c4ccc(Br)cc4)c3)C(=O)[C@H]12,5.29
4,CCOC(=O)c1c(NC=C2C(=O)N(C)C(=O)N(C)C2=O)sc2c1CC[C@@H](CC)C2,5.76
5,CCCCOc1ccc(/C=C/C(=O)NC(C)C)cc1,4.45
6,Cc1ccc([N+](=O)[O-])cc1N1C(=O)[C@@H]2[C@@H](C1=O)[C@@H](C(=O)C(C)(C)C)N1N=CC=C[C@H]21,3.85
7,CCCCN1C(=O)N(C)[C@@H]2[C@H]1N(C)C(=O)N2CCCC,2.69
8,CCOc1cc(C(=O)Nc2ccc(OC)c(OC)c2)cc(OCC)c1OCC,4.11
9,COc1ccc(N(C(=O)C2CCCCC2)S(=O)(=O)c2ccc3c4c(cccc24)C(=O)N3C)cc1,5.26
10,C[C@@H](NC(=O)CN(C1CCCCC1)S(=O)(=O)c1ccccc1)c1ccccc1,4.9
11,COc1cccc(C(=O)N2CCC[C@H](c3ccccc3)C2)c1,4.04
12,C[C@@H]1CCCCN1C(=O)CCCCC(=O)N1CCCC[C@H]1C,3.42
13,COc1cc(/C=C/C(=O)N[C@H]2CCCc3ccccc32)cc(OC)c1OC,4.27
14,CCOC(=O)N1CCN(C(=O)c2noc3c2C[C@@H](C(C)(C)C)CC3)CC1,4.52
15,C[C@@H](OC(=O)c1cccc(C(F)(F)F)c1)C(N)=O,2.75
16,COc1ccc([C@@H]2[C@H]3C(=O)N(c4sc5c(c4C#N)CCCC5)C(=O)[C@@H]3ON2c2ccccc2C)cc1,5.83
17,CC(C)(C)C(=O)Nc1ccc(NC(=O)C(C)(C)C)cc1,2.79
18,O=C(c1sc2cc(Cl)ccc2c1Cl)N1CCN(C(=S)NC[C@H]2CCCO2)CC1,4.83
19,CC[C@H](C(=O)N1CCCN(C(=O)[C@@H](CC)c2ccccc2)CC1)c1ccccc1,4.93
20,COc1ccc2c(c1)O[C@](O)(C(F)(F)F)CC2=O,2.79
21,COc1cccc(NC(=O)[C@H](OC(=O)C2=COCCO2)c2ccccc2)c1,3.81
22,CC(=O)c1c(C)[nH]c(C(=O)COC(=O)c2ccccc2NC(=O)c2ccco2)c1C,4.73

# Same assay, conditions: pH 6.5
row,SMILES,logD
1,COC[C@H](C)NC(=O)CCl,0.61
2,Cc1ccc(S(=O)(=O)/N=C2\SC(=CN(C)C)C(=O)N2C2CCCCC2)cc1,4.75
3,C[C@H]1CCc2nc(NC(=O)c3ccc(F)c(F)c3)sc2C1,4.79
4,CC/C(=N\N=C1/S[C@@H](C)C(=O)N1Cc1ccco1)c1ccccc1,5.07
5,COC(=O)c1cc(N2C(=O)[C@H]3[C@@H](C2=O)[C@]2(C(OC(C)=O)OC(C)=O)C=C[C@H]3O2)ccc1Cl,3.77
6,COc1ccccc1N(CCOC(=O)[C@@H]1CC(=O)N(c2ccccc2)C1)C1=NS(=O)(=O)c2ccccc21,2.5
7,COC(=O)c1ccc(C(=O)OC)c(NC(=O)CSc2ncnc3sc4c(c23)CC[C@@H](C)C4)c1,5.79
8,CC[C@@H]1CCCCN1C(=O)COc1cccc2c1CCN(Cc1ccc(Cl)cc1)C2=O,5.23
9,O=C([C@H]1CCCO1)N1CCN(C(=S)Nc2ccc(Oc3ccccc3)cc2)CC1,4.18
10,O=C(CCCNC1=NS(=O)(=O)c2ccccc21)OCc1cc([N+](=O)[O-])cc2c1OCOC2,3.52
11,C[C@H]1CCCC[C@@H]1NC(=O)COc1ncnc2ccccc12,3.11
12,CCCOc1ccc(N2C(=O)C[C@H](N3CCNC3=S)C2=O)cc1,2.68
13,COc1cccc(/C=C/C(=O)OCC(=O)c2cc(C)n(-c3cc(C)on3)c2C)c1,5.2
14,C[C@@H]1CCCN(c2nc3c(c(=O)n(C)c(=O)n3C)n2CCSc2nc3ccccc3s2)C1,5.05
15,CCN(C(=O)CN1C(=O)[C@H]2CCCC[C@H]2C1=O)c1nnc(-c2ccc(Cl)cc2)s1,4.91

# Same assay, conditions: pH 7.0
row,SMILES,logD
1,CC(=O)Nc1ccc([C@H]2C(C#N)=C(N)Oc3c2c(C)nn3-c2cccc(Cl)c2)cc1,4.93
2,Cn1c([C@@H](C#N)C(=O)[C@@H](Sc2ccccc2)c2ccccc2)nc2ccccc21,5.28

# Same assay, conditions: pH 7.3
row,SMILES,logD
1,O=C1C[C@@H](n2nc(-c3ccccc3)n(-c3ccccc3)c2=S)[C@@H]2CO[C@H]1O2,3.65
2,CCCCOC(=O)C1=C(C)NC2=C(C(=O)CCC2)[C@H]1c1ccccc1OC,4.21

# Same assay, conditions: pH 8.0
row,SMILES,logD
1,COC(=O)c1c(N[C@@H](NC(C)=O)C(Cl)(Cl)Cl)sc2c1CCCC2,5.04
2,COc1ccc([C@@H](C)n2c(C)c3c(C)nnc(C)c3c2C)cc1,3.43
3,CC[C@H]1CS/C(=N\c2cccc(C)c2)N1C(=O)CCN1C(=O)c2ccccc2C1=O,4.96
4,OC[C@H]1CCCN(c2ncnc3scc(-c4ccccc4)c23)C1,3.9
5,Cc1sc2ncn(CC(=O)N[C@@H]3CCC[C@@H](C)[C@H]3C)c(=O)c2c1C,4.34
6,COc1cc(/C=C/C(=O)Nc2ccc(N3CCCCC3)cc2)ccc1OC(F)F,5.36

# Same assay, conditions: pH 10.0
row,SMILES,logD
1,CCCC[C@@]1(c2ccccc2)NC(=S)N(c2ccc(C)cc2)N1,5.1
2,CC/N=C1\S/C(=C\c2cn(CC(=O)Nc3cccc(C)c3)c3ccccc23)C(=O)N1CC,5.8
3,CCOCc1c(C)cc(C)c([C@@H]2C(C#N)=C(N)Oc3[nH]nc(C)c32)c1C,4.09
4,COc1ccccc1[C@H]1CC(=O)C2=C(C1)NC(C)=C(C(=O)OC1CCCC1)[C@H]2c1ccc(OC(C)=O)cc1,5.81
5,CCOC(=O)c1c(CC(C)C)csc1/N=C/c1c(C)nn(-c2ccccc2)c1O,5.16
6,CCCCSC1=C(C#N)[C@H](c2cccc([N+](=O)[O-])c2)C(C(C)=O)=C(C)N1,4.44
7,CC[C@@H](SC1=Nc2ccccc2C2=N[C@@H](Cc3ccccc3)C(=O)N12)C(=O)N1CCOCC1,3.95
8,CCOC(=O)[C@H]1N=C(C2=C(O)c3ccccc3C2=O)[C@@H]2C(=O)N(N(C)c3ncc(C(F)(F)F)cc3Cl)C(=O)[C@@H]21,4.38
9,CC1=C(C(=O)OCCc2ccccc2)[C@@H](c2ccc3c(c2)OCO3)C2=C(C[C@H](c3cccs3)CC2=O)N1,5.44
10,C[C@H]1C[C@H](C)CN(C(=O)CSc2nnc(-c3ccccc3)n2C)C1,3.68
11,CCSCCOC(=O)C1=C(C)NC2=C(C(=O)C[C@@H](c3cccs3)C2)[C@H]1c1ccc2c(c1)OCO2,5
12,Clc1cccc(Cl)c1Cn1ccc(Nc2nnc(Cc3ccc(-n4cnnn4)cc3)s2)n1,4.99

# Same assay, conditions: pH 10.5
row,SMILES,logD
1,Cn1c(N)c(C(=O)CSc2nc3sc4c(c3c(=O)n2Cc2ccccc2)CCC4)c(=O)n(C)c1=O,5.21
2,CCc1cc2c3c(c1)[C@]1(C(=O)N3C(C)(C)C=C2C)C(C#N)=C(N)OC2=C1C(=O)CC(C)(C)C2,5.39
3,Cc1cc(C)n(CCOC(=O)[C@H]2[C@H](C=C(Cl)Cl)C2(C)C)n1,4.76
4,CCOc1ccc(N2CN=c3s/c(=C\c4cc(OC)c(OC)cc4[N+](=O)[O-])c(=O)n3C2)cc1,4.93
5,CC(=O)C1=C(C)NC(SCC(=O)c2ccc(Cl)cc2Cl)=C(C#N)[C@@H]1c1cccs1,5.25
6,COc1cc([C@@H]2C(C#N)=C(N)Oc3[nH]nc(C)c32)ccc1OCc1cccc(F)c1,4.42
7,CCOc1ccc(C2=NN=C3OC(N)=C(C#N)[C@@H](c4ccco4)[C@@H]32)c(OCC)c1,4.48
8,Cc1ccc([C@@H](O)C#CC(O)(c2ccccc2)c2ccccc2)o1,3.53
9,OC[C@@H](O)Cn1c(SCCSc2nc3ccccc3n2C[C@H](O)CO)nc2ccccc21,3.29
10,N#CC1=C(N)OC2=NN=C(c3cccs3)[C@@H]2[C@@H]1C1CCCCC1,4.64
